From patent publication US6984640B1, “Antiparasitic artemisinin derivatives (endoperoxides)” (Bayer Aktiengesellschaft, priority 1998, dated 2006)

Legend:
Assay type in all cases: cell-based
[1] = test system: Plasmodium falciparum D6 strain (chloroquine sensitive); experiment: In vitro screening against Plasmodium falciparum, 3H-hypoxanthine incorporation, D6 strain; settings: 66 hours incubation
Excerpt: (§1) Two parasite strains—W2 resistant to chloroquine, and D6 sensitive to chloroquine but resistant to mefloquine were used. In Table IV below, the best compounds should show no cross resistance between the two strains.
(§2) The assay relies on incorporation of radiolabelled hypoxanthine by the parasite and inhibition of incorporation is attributed to activity of known or candidate antimalarial drugs. For each assay, proven antimalarials such as chloroquine, mefloquine, quinine, artemisinin and pyrimethamine were used as controls. The incubation period was 66 hours, and the starting parasitemia was 0.2% with 1% hematocrit. The medium was an RPMI-1640 culture with no folate or p-aminobenzoic acid. Albumax rather than 10% normal heat inactivated human plasma was used as, with Albumax, less protein binding is observed, and compounds elicit slightly higher activities in this model. If a compound was submitted with no prior knowledge of activity, it was dissolved directly in dimethyl sulphoxide (DMSO), and diluted 400 fold with complete culture medium. The unknown compound was started at a maximum concentration of 50,000 ng ml^−1 and sequentially diluted 2-fold for 11 times to give a concentration range of […]. These dilutions were performed automatically by a Biomek 1000 Liquid Handling System in 96-well microtiter plates. The diluted drugs were then transferred to test plates, 200 μl of parasitized erythrocytes were added, and incubated at 37° C. in a controlled environment of 5% CO2, 5% O2 and 90% N2. After 42 hours, 25 μl of ^3H-hypoxanthine was added, and the plates incubated for an additional 24 hours. After 66 hours, the plates were frozen at −70° C. to lyse the red cells, and then thawed and harvested onto glass fiber filter mats in a 96-well harvester. The filter mats were then counted in a scintillation counter. For each drug, the concentration response profile was determined and 50%, 90% and 10% inhibitory concentrations (IC50 IC90 and IC10) were determined by a non-linear logistic dose response analysis program.
(§3) A prescreen format can be used wherein a 3-dilution assay may be used to determine activity at high medium or low concentrations. The concentrations were selected as 50,000, 500 and 50 ng ml^−1. These were performed in duplicate on a 96-well format plate with 14 test compounds and one known (standard) compound per plate. The system was automated with a Biomek diluter for mixing and diluting the drugs, and adding drugs and parasites to a test plate. In the prescreen format, if the ANALYSIS FIELD (AP) has a “<”, then the compound was “very active” and the IC values are most likely to be below the last dilution value (in nanograms/ml), which is listed next to AF. In most cases, these compounds were run again at lower starting concentration to determine the true IC value. If the AF has a “>”, then the IC value is greater than the prescreen dilution value; thus “AF>250” means that the IC value is greater than 250 ng ml^−1 and no further screening is carried out. In such cases, values of 0.00 are entered for IC values.

[2] = test system: Plasmodium falciparum W2 strain (chloroquine resistant); experiment: In vitro screening against Plasmodium falciparum, 3H-hypoxanthine incorporation, W2 strain; settings: for In vitro activity: (IC10) / In vitro activity: IC50 / In vitro activity: IC90: 66 hours incubation
Excerpt: as §1, §2, §3

[3] = test system: Eimeria tenella; experiment: Screening against Eimeria tenella cell cultures in vitro (chick kidney cells); set-up: key: 3 = very active no intact parasites/well; 2 = active 1-6 parasites per well; 1 = weakly active up to 1 intact schizont/optical field of vision; 0 = inactive >1 intact schizont/optical field of vision; T = cytotoxic host cells are dead; settings: day 5 post infection
Procedure: Cells from kidneys of 19 day old chicks are cultured as monolayers in 96-well plates (Falcon 3872) in a medium of Hanks lactalbumine hydrolysate, 5% fetal calf serum, 1% glutamine and 1% non-essential amino acids. After two days at 42° C. under 5% CO2, the culture was infected with excised sporozoites of Eimeria tenella at about […] per well. Test compounds were dissolved in DKSO and diluted with culture medium to a maximum end concentration of 10 μg ml^−1. The dilution steps were 1:10. On day 5 post infection, the cultures were evaluated under a microscope at 100-fold magnification and the condition of the host cells and the amount of intact schizonts and free merozoites was determined.

[4] = test system: Neospora caninum; experiment: Screening against Neospora caninum cell cultures in vitro (VERO or ED host cells); set-up: key: 0 = no effect monolayer completely destroyed; 1 = weak effect monolayer partly destroyed, parasite clumps can be seen; 2 = full effect monolayer intact, no tachyzoites observable; T = cytotoxic cells are dead, lysed; settings: microscopic evaluation 4 days after treatment
Procedure: Screening was conducted in 96-well plates (Falcon 3872). A monolayer of host cells (VERO or ED) were placed on a cell culture plate. Non-infected mono-layers of cells were cultured in two 50 ml tissue culture bottles ([…] cell culture area). The cell layer was detached with trypsin-EDTA (5 ml. Gibco 45300-019) in a CO2-culture cupboard at 37° C. After 10 minutes, most of the cells were detached. The cells were transferred with a 5 ml pipette into a 50 ml centrifuge tube (Greiner, B769331) containing about 1 ml warmed fetal calf serum. After centrifugation for 5 minutes at 1500 rpm (Varifuge 3.0, Heraeus), the liquid was removed and the cell pellet suspended in RPMI medium (100 ml, 95% RPMI 1640, 2% FCS, 1% L-glutamine, 1% sodium hydrogen carbonate, 1% penicillin/streptomycin). The cell suspension was pipetted into six 96-well plates at 150 μl per well. The coated cell culture plates were placed in an incubation cupboard at 37° C. under 5% CO2 for 24 hours. The cells were then infected with Neospora caninum tachyzoites at a concentration of 48,000 tachyzoites per well. This was followed by incubation at 37° C. under 5% CO2 for 24 hours.
The test compounds (0.5-1.5 mg) were weighed into 1.5 ml eppendorf vessels and dissolved in 1 ml dimethyl sulphoxide, corresponding to a dilution of about 1×10^−3 g ml^−1. The medium used for further dilution consisted of 87% RPMI 1640, 10% FCS, 1% L-glutamine, 1% sodium hydrogen carbonate, 1% penicillin/streptomycin. In the first screening, concentrations of […], […] and 10^−7 g ml^−1 were used. The diluted preparations were then transferred to the cell culture plates at a volume of 150 μl per well after 24 hour infection with Neospora caninum. For the first row, untreated medium was used; this row contained infected and uninfected cells as controls. The cell plate was incubated at 37° C. under 5% CO2 for 5 days. Microscopic evaluation was conducted 4 days after treatment and 5 days after infection at a magnification of 25×10 in an inverse microscope according to the following evaluation scheme.

SMILES	In vitro activity: (IC10) [1] [ng/mL]	In vitro activity: IC50 [1] [ng/mL]	In vitro activity: IC90 [1] [ng/mL]	In vitro activity: (IC10) [2] [ng/mL]	In vitro activity: IC50 [2] [ng/mL]	In vitro activity: IC90 [2] [ng/mL]	Effectiveness rating against Eimeria tenella ([3]; Dose 10^−5 g/ml)	Effectiveness rating against Eimeria tenella ([3]; Dose 10^−6 g/ml)	Effectiveness rating against Eimeria tenella ([3]; Dose 10^−7 g/ml)	Evaluation of effect against Neospora caninum ([4]; Dose 10^−5 g/ml)	Effectiveness rating against Eimeria tenella ([3]; Dose 10^−8 g/ml)	Evaluation of effect against Neospora caninum ([4]; Dose 10^−6 g/ml)	Evaluation of effect against Neospora caninum ([4]; Dose 10^−7 g/ml)	Evaluation of effect against Neospora caninum ([4]; Dose 10^−8 g/ml)	ANALYSIS FIELD (AF): bound on the IC values in prescreen format ([2]; prescreen 3-dilution assay, 0.00 entered for IC values)
COc1cc(OC)c(C2OC3OC4(C)CCC5C(C)CCC(C2C)C35OO4)c(OC)c1 (mixture of isomers) [Example 12]	0.35	0.77	1.70	0.47	0.78	1.32									
CC1CCC2[C@@H](C)C(=O)OC3O[C@]4(C)CCC1C32OO4 (stereo partly shown) [Artemisinin, artemisinin]							2 (2 = active 1-6 parasites per well)	1 (1 = weakly active up to 1 intact schizont/optical field of vision)	0 (0 = inactive >1 intact schizont/optical field of vision)	0					
CC1CCC2C(C)C(F)OC3OC4(C)CCC1C32OO4 (stereo not drawn) [Example 1, 10β-fluoro-10-deoxo-10-dihydroartemisinin]		0.74	1.36		0.69	0.98									
CC1CCC2C(C)C(c3ccccc3)OC3OC4(C)CCC1C32OO4 (stereo not drawn) [Example 2, 10β-phenyl-10-deoxo-10-dihydroartemisinin]	0.53	0.73	0.99	0.19	0.31	0.52	2 (2 = active 1-6 parasites per well)	2 (2 = active 1-6 parasites per well)	1 (1 = weakly active up to 1 intact schizont/optical field of vision)	1	0 (0 = inactive >1 intact schizont/optical field of vision)	1	0		
COc1ccc(C2O[C@@H]3O[C@@]4(C)CC[C@H]5[C@H](C)CC[C@@H]([C@H]2C)[C@@]35OO4)c(OC)c1 (stereo partly shown) [Example 4, 10-(2′,4′-dimethoxyphenyl)-10-deoxo-10-dihydroartemisinin]	0.52	1.05	2.10	0.40	0.84	1.74									
CC1CCC2C(C)C(Nc3ccccc3)OC3OC4(C)CCC1C32OO4 (stereo not shown) [Example 15]	0.48	0.61	0.78	0.52	0.66	0.84	2 (2 = active 1-6 parasites per well)	2 (2 = active 1-6 parasites per well)	1 (1 = weakly active up to 1 intact schizont/optical field of vision)		0 (0 = inactive >1 intact schizont/optical field of vision)	1	1	0	
CC1CCC2C(C)C(Nc3ccc(F)cc3)OC3OC4(C)CCC1C32OO4 (stereo not shown) [Example 16]	0.48	0.61	0.78	0.49	0.64	0.84									
CC1CCC2C(C)C(NCc3ccccc3)OC3OC4(C)CCC1C32OO4 (stereo not shown) [Example 21]	0.79	1.77	3.96					0 (0 = inactive >1 intact schizont/optical field of vision)		2		0			
CCN(CC)C1OC2OC3(C)CCC4C(C)CCC(C1C)C24OO3 (stereo not shown) [Example 26]	5.05	9.05	16.24												0.00; 0.00 AF < 4 ng/ml
CC(NC1OC2OC3(C)CCC4C(C)CCC(C1C)C24OO3)c1ccccc1 (stereo not shown) [Example 30]	6.74	11.20	18.61				T	2 (2 = active 1-6 parasites per well)	0 (0 = inactive >1 intact schizont/optical field of vision)	1		0			
CC1CCC2C(C)C(c3ccc(Br)cc3)OC3OC4(C)CCC1C32OO4 (stereo not shown) [Example 38]	0.22	0.90	3.69	0.55	1.23	2.76									
COc1cc(OC)c(C2OC3OC4(C)CCC5C(C)CCC(C2C)C35OO4)c(OC)c1 (stereo not shown) [Example 44]	0.29	0.69	1.67	0.13	0.3318	0.8168									
